What was measured:
[1] = target: D(2) dopamine receptor (Homo sapiens) (UniProt P14416); details: Compound concentration 10.0 uM
[2] = target: T1, Dual specificity protein kinase TTK (Homo sapiens) (UniProt P33981); details: Compound concentration 1.0 uM
T1 sequence (whole entry): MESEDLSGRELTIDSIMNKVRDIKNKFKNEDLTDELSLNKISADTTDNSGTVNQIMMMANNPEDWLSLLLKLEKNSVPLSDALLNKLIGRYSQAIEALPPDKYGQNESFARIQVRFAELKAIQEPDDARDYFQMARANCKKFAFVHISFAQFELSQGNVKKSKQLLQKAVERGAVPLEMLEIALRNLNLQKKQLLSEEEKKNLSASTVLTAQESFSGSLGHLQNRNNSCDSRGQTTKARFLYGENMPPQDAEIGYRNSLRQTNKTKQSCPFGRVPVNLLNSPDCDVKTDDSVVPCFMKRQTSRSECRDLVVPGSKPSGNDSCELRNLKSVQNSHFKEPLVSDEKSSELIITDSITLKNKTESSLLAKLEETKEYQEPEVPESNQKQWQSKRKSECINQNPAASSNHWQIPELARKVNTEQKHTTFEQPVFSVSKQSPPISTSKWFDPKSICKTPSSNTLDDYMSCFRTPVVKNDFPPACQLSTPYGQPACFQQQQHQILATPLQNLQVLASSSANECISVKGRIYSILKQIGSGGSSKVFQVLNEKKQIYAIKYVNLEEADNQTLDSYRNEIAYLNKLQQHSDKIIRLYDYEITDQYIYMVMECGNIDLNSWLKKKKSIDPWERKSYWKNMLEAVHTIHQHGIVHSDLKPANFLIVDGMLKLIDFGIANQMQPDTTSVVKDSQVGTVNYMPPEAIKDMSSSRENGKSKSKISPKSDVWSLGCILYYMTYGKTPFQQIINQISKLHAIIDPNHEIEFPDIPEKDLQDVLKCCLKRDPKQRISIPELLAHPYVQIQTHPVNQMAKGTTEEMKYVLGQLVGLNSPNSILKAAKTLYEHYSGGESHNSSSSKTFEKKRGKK

[3] = target: Serine/threonine-protein kinase PAK 2 (Homo sapiens) (UniProt Q13177); details: Compound concentration 1.0 uM
[4] = target: T2, Calcium/calmodulin-dependent protein kinase type IV (Homo sapiens) (UniProt Q16566); details: Compound concentration 1.0 uM
T2 sequence (whole entry): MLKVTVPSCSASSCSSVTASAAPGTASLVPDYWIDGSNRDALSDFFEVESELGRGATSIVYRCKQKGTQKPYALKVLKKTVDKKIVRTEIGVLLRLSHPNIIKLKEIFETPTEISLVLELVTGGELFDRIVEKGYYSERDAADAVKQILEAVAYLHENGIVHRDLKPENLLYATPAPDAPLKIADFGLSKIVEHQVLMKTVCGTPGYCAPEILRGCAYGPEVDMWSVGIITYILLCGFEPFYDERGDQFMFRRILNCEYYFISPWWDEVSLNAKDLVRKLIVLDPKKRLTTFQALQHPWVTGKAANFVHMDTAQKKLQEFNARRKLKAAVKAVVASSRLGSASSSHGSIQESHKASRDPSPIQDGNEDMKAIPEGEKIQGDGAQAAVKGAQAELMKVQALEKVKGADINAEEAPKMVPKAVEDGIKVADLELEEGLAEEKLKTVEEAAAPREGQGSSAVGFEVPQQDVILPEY

[5] = target: PI3-kinase p110-delta/p85-alpha (Homo sapiens) (UniProt P27986+O00329); details: Compound concentration 1.0 uM
[6] = target: Ephrin type-A receptor 5 (Homo sapiens) (UniProt P54756); details: Compound concentration 1.0 uM
[7] = target: T3, Serine/threonine-protein kinase Nek11 (Homo sapiens) (UniProt Q8NG66); details: Compound concentration 1.0 uM
T3 sequence (whole entry): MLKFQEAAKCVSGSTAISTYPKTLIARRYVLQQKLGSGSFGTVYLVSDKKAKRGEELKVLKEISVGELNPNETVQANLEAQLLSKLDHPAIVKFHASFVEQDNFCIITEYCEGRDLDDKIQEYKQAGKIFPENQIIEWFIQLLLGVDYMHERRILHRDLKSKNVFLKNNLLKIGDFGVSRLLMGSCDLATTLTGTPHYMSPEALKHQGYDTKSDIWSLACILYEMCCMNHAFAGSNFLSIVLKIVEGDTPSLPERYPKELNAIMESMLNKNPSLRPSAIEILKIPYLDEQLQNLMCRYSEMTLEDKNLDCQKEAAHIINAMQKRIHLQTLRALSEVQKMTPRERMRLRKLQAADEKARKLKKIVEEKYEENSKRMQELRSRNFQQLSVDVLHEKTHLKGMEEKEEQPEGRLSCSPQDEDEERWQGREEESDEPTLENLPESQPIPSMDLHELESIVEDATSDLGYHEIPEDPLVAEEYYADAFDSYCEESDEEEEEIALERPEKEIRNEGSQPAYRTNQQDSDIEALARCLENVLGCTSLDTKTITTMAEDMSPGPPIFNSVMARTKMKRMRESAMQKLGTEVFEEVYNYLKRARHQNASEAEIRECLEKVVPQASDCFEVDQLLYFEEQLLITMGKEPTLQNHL

Sequence of Serine/threonine-protein kinase PAK 2 (Homo sapiens) (Q13177 whole entry): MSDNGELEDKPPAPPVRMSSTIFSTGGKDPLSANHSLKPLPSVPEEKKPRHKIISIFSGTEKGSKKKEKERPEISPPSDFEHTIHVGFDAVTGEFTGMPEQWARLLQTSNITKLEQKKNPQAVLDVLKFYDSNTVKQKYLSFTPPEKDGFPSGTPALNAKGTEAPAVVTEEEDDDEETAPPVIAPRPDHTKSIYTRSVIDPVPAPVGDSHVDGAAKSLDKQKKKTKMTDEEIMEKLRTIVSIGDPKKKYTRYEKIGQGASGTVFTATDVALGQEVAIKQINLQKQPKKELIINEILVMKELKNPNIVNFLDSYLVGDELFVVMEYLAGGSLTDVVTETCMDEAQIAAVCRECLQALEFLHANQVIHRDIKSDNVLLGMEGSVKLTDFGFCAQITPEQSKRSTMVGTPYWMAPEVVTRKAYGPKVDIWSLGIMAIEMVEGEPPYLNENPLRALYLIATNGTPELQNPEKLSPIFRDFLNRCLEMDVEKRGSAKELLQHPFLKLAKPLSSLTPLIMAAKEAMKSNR
Sequence of Ephrin type-A receptor 5 (Homo sapiens) (P54756 whole entry): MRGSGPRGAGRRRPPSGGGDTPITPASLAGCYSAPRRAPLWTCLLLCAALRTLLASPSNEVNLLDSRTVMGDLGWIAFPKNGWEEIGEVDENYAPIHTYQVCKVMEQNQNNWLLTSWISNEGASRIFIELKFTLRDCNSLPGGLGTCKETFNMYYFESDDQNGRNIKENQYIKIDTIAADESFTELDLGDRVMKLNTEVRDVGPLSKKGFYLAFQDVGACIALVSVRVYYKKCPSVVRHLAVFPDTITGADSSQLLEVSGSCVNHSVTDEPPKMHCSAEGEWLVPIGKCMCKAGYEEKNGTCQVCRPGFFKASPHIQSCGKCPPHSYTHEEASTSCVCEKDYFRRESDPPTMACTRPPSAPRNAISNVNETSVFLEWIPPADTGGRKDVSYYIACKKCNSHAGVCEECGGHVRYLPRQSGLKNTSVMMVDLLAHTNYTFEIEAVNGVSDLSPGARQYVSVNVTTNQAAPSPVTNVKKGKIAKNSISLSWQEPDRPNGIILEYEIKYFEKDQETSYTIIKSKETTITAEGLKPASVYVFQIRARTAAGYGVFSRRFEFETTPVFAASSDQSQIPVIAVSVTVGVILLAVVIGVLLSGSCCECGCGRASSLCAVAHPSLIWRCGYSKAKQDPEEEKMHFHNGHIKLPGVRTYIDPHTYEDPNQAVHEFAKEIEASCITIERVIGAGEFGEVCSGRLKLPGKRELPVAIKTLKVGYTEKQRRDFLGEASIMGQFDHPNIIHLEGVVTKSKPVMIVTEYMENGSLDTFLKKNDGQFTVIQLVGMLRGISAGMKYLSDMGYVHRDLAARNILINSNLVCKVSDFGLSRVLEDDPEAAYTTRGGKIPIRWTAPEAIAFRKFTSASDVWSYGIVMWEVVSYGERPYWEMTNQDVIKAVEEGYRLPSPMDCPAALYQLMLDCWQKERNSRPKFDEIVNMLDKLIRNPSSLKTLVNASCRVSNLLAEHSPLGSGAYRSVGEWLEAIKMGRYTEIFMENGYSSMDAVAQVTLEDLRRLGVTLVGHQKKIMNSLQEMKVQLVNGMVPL
Sequence of D(2) dopamine receptor (Homo sapiens) (P14416 whole entry): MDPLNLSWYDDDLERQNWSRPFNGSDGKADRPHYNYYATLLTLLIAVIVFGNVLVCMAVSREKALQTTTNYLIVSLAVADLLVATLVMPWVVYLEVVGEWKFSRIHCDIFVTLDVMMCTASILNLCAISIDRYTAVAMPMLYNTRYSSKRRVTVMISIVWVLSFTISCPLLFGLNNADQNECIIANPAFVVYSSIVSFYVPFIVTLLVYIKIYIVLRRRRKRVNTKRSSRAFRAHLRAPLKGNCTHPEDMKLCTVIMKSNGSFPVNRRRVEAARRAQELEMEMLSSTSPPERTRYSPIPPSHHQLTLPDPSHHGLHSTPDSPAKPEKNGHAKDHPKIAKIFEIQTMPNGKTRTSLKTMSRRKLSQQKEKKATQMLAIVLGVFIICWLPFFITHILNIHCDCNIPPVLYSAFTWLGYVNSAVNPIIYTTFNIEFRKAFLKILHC

Cc1nc(C2CCN(C(=O)c3ccc(OC(F)(F)F)cc3N)CC2)c2ncc(N3CCN(C)CC3)cc2n1 [BAY-693]
inactive: inhibition [1] 2.97%

CN1CCN(c2cnc3c(C4CCN(C(=O)c5ccc(OC(F)(F)F)cc5N)CC4)ncnc3c2)CC1 [BAY-885]
inactive: % residual kinase activity [2] 93% | % residual kinase activity [3] 108% | % residual kinase activity [4] 96% | % residual kinase activity [5] 102% | % residual kinase activity [6] 57% | % residual kinase activity [7] 104%

— ChEMBL document CHEMBL4507268 (2021)
